# Results published in US9801901B2, “Alginate oligomers for use in overcoming multidrug resistance in bacteria” (priority 2009, dated 2017).
# Where two headings read alike, the source gives them in different places. Marks after values point to notes of the source that are not given here.
# Experiments:
# [1] = system: V10 (Egypt) Acinetobacter lwoffii; assay: MIC assay, CAMHB with alginate oligomer, no visible growth; type: cell-based; details: Table 5, V10 MDR Acin. lwoff
# V11 5702 (Wales) E. coli = assay: as above; type: cell-based; details: Table 5, V11 MDR E.coli
# V22 6056 Acinetobacter = assay: as above; type: cell-based, Acinetobacter lwoffii; details: Table 5, V22 MDR Acin. lwoff
# [2] = system: strains of Klebsiella pneumoniae displaying MDR phenotypes; assay: MIC-assay, Mueller-Hinton broth with G-block alginate, 384-well, OD600 (Table 10); type: cell-based; details: read-out: MIC
# Source text: Minimum inhibitory concentration (MICs) of different antibiotics for strains of Klebsiella pneumoniae displaying MDR phenotypes in the presence of varying concentrations of OligoCF-5/20 (0-10%). (MIC values are expressed in μg ml^−1).
# MDR Providencia stuartii = assay: MIC-assay, Mueller-Hinton broth with G-block alginate, 384-well, OD600 (Table 11); type: cell-based; details: Providencia stuartii (IR57 India, V7) MDR
# Source text: (§1) Minimum inhibitory concentration (MICs) of different antibiotics for strains of E. coli and Providencia stuartii displaying MDR phenotypes in the presence of varying concentrations of OligoCF-5/20 (0-10%). (MIC values are expressed in μg ml^−1).
# [3] = system: strains of E. coli displaying MDR phenotypes; assay: as above; type: cell-based; details: Escherichia coli, Escherichia coli (5702, Wales, V11) MDR, read-out: MIC
# Source text: as §1
# [4] = system: Staphylococcus aureus (MRSA) U50; assay: MIC-assay, Mueller-Hinton broth with G-block alginate, 384-well, OD600 (Table 12); type: cell-based; details: MRSA 1040s, U50 MDR, read-out: MIC
# Source text: (§2) Minimum inhibitory concentration (MICs) of different antibiotics for strains of Streptococcus oralis and Staphylococcus aureus (MRSA) displaying MDR phenotypes in the presence of varying concentrations of OligoCF-5/20 (0-10%). (MIC values are expressed in μg ml^−1).
# Streptococcus oralis = assay: as above; type: cell-based; details: Streptococcus oralis (5610, V17) MDR, read-out: MIC
# Source text: as §2
# [5] = system: Pseudomonas aeruginosa (MDR 301, PSA, V2); assay: MIC-assay, Mueller-Hinton broth with G-block alginate, 384-well, OD600; details: Pseudomonas aeruginosa, Table 8, V2
# [6] = system: Pseudomonas aeruginosa (R22, PSA, V1); assay: as above
# [7] = system: Acinetobacter lwoffii (6056, V22); assay: as above
# [8] = system: Acinetobacter baumannii (Egypt, V9); assay: as above
# [9] = system: Acinetobacter lwoffii (Egypt, V10); assay: as above
# [10] = Table 9, G-block (OligoCF-5/20) 0%
# [11] = Table 9, G-block (OligoCF-5/20) 2%
# [12] = Table 9, G-block (OligoCF-5/20) 6%
# [13] = Table 9, G-block (OligoCF-5/20) 10%
compound,measurement,setting,value
CN(C)[C@@H]1C(O)=C(C(N)=O)C(=O)[C@@]2(O)C(O)=C3C(=O)c4c(O)cccc4[C@@](C)(O)[C@H]3[C@H](O)[C@@H]12 [Oxytetracycline],MIC,"[1]; Acinetobacter lwoffii, OligoCF-5/20 0G, read-out: MIC",0.5 µg/mL
same,MIC,[1]; OligoCF-5/20 +2% G,0.5 µg/mL
same,MIC,[1]; OligoCF-5/20 +6% G,0.5 µg/mL
same,MIC,[1]; OligoCF-5/20 +10% G,0.25^† μg/ml
same,MIC,"V11 5702 (Wales) E. coli; Escherichia coli, OligoCF-5/20 0G, read-out: MIC",0.5 µg/mL
same,MIC,V11 5702 (Wales) E. coli; OligoCF-5/20 +2% G,1^‡ μg/ml
same,MIC,V11 5702 (Wales) E. coli; OligoCF-5/20 +6% G,0.5 µg/mL
same,MIC,V11 5702 (Wales) E. coli; OligoCF-5/20 +10% G,0.5 µg/mL
same,MIC,"V22 6056 Acinetobacter; Acinetobacter, OligoCF-5/20 0G, read-out: MIC",2 µg/mL
same,MIC,V22 6056 Acinetobacter; OligoCF-5/20 +2% G,2 µg/mL
same,MIC,V22 6056 Acinetobacter; OligoCF-5/20 +6% G,2 µg/mL
same,MIC,V22 6056 Acinetobacter; OligoCF-5/20 +10% G,8^‡ μg/ml
same,MIC,"[2]; Klebsiella pneumoniae (5712, Wales, V12) MDR, G-block (OligoCF-5/20) 0%",1 µg/mL
same,MIC,"[2]; Klebsiella pneumoniae (5712, Wales, V12) MDR, G-block (OligoCF-5/20) 2%",1 µg/mL
same,MIC,"[2]; Klebsiella pneumoniae (5712, Wales, V12) MDR, G-block (OligoCF-5/20) 6%",1 µg/mL
same,MIC,"[2]; Klebsiella pneumoniae (5712, Wales, V12) MDR, G-block (OligoCF-5/20) 10%",1 µg/mL
same,MIC,"[2]; Klebsiella pneumoniae (IR25, India, V6) MDR, G-block (OligoCF-5/20) 0%",2 µg/mL
same,MIC,"[2]; Klebsiella pneumoniae (IR25, India, V6) MDR, G-block (OligoCF-5/20) 2%",2 µg/mL
same,MIC,"[2]; Klebsiella pneumoniae (IR25, India, V6) MDR, G-block (OligoCF-5/20) 6%",2 µg/mL
same,MIC,"[2]; Klebsiella pneumoniae (IR25, India, V6) MDR, G-block (OligoCF-5/20) 10%",2 µg/mL
same,MIC,"[2]; Klebsiella pneumoniae (K3, India, V8) MDR, G-block (OligoCF-5/20) 0%",512 µg/mL
same,MIC,"[2]; Klebsiella pneumoniae (K3, India, V8) MDR, G-block (OligoCF-5/20) 2%",512 µg/mL
same,MIC,"[2]; Klebsiella pneumoniae (K3, India, V8) MDR, G-block (OligoCF-5/20) 6%",512 µg/mL
same,MIC,"[2]; Klebsiella pneumoniae (K3, India, V8) MDR, G-block (OligoCF-5/20) 10%",1020 µg/mL
same,MIC,MDR Providencia stuartii; G-block (OligoCF-5/20) 0%,128 µg/mL
same,MIC,MDR Providencia stuartii; G-block (OligoCF-5/20) 2%,128 µg/mL
same,MIC,MDR Providencia stuartii; G-block (OligoCF-5/20) 6%,128 µg/mL
same,MIC,MDR Providencia stuartii; G-block (OligoCF-5/20) 10%,128 µg/mL
same,MIC,[3]; G-block (OligoCF-5/20) 0%,0.5 µg/mL
same,MIC,[3]; G-block (OligoCF-5/20) 2%,0.5 µg/mL
same,MIC,[3]; G-block (OligoCF-5/20) 6%,0.5 µg/mL
same,MIC,[3]; G-block (OligoCF-5/20) 10%,0.25 µg/mL
same,MIC,[4]; G-block (OligoCF-5/20) 0%,2 µg/mL
same,MIC,[4]; G-block (OligoCF-5/20) 2%,2 µg/mL
same,MIC,[4]; G-block (OligoCF-5/20) 6%,1 µg/mL
same,MIC,[4]; G-block (OligoCF-5/20) 10%,0.5 µg/mL
same,MIC,Streptococcus oralis; G-block (OligoCF-5/20) 0%,< 0.25 µg/mL
same,MIC,Streptococcus oralis; G-block (OligoCF-5/20) 2%,< 0.25 µg/mL
same,MIC,Streptococcus oralis; G-block (OligoCF-5/20) 6%,0.5 µg/mL
same,MIC,Streptococcus oralis; G-block (OligoCF-5/20) 10%,< 0.25 µg/mL
same,MIC,[5]; G-block (OligoCF-5/20) 0%,16 µg/mL
same,MIC,[5]; G-block (OligoCF-5/20) 2%,16 µg/mL
same,MIC,[5]; G-block (OligoCF-5/20) 6%,8 µg/mL
same,MIC,[5]; G-block (OligoCF-5/20) 10%,8 µg/mL
same,MIC,"[6]; Table 8, G-block (OligoCF-5/20) 0%",> 128 µg/mL
same,MIC,"[6]; Table 8, G-block (OligoCF-5/20) 2%",> 128 µg/mL
same,MIC,"[6]; Table 8, G-block (OligoCF-5/20) 6%",> 128 µg/mL
same,MIC,"[6]; Table 8, G-block (OligoCF-5/20) 10%",> 128 µg/mL
same,MIC,[7]; [10],< 2 µg/mL
same,MIC,[7]; [11],< 2 µg/mL
same,MIC,[7]; [12],< 2 µg/mL
same,MIC,[7]; [13],< 2 µg/mL
same,MIC,[8]; [10],1 µg/mL
same,MIC,[8]; [11],0.5 µg/mL
same,MIC,[8]; [12],1 µg/mL
same,MIC,[8]; [13],0.5 µg/mL
same,MIC,[9]; [10],0.5 µg/mL
same,MIC,[9]; [11],0.5 µg/mL
same,MIC,[9]; [12],0.5 µg/mL
same,MIC,[9]; [13],0.5 µg/mL
